Values after ≈ are worked out from the molar mass of the structure shown. Like-named read-outs stand apart in the source and are kept apart here.
Key:
Water solubility = assay type: physicochemical; conditions: n = 4
[1] = Pharmacokinetics after PO administration in mice; assay type: in vivo; conditions: for BA: vs IV AUCinf at 1 mg/kg; for AUC(0-t): read-out: AUC24h; for Cmax: read-out: Cmax,1; for Tmax: po
Description: (§1) Male ICR mice (7 weeks old, […]; Samtako, Osan, Korea) were acclimated to the animal facility at Kyungpook National University for one week with free access to animal chow and water. In the per oral administration (PO) groups, the mice were fasted for 14–16 h prior to the administration of 2-QBA.
(§2) After the PO administration of 2-QBA (2 mg/kg in 5 mL of saline containing 10% DMSO) using an oral gavage for 10 mice, blood samples were collected at 0.25, 0.75, 2, and 8 h from 5 mice and at 0.5, 1, 4, and 24 h from another 5 mice. Ten mice in each group were administered 5 mg/kg or 15 mg/kg of 2-QBA using an oral gavage and blood was drawn using the same protocol described above. All blood samples were centrifuged at 13,000× g for 1 min and the supernatant plasma (30 μL) was stored at −80 °C until the analysis of the 2-QBA. For the analysis of 2-QBA in the plasma samples, 120 μL of IS solution (berberine 1 ng/mL in acetonitrile) was added to plasma samples (30 μL). The mixture was vigorously vortexed for 5 min and then centrifuged at 13,000× g for 5 min. The supernatant was transferred to autosampler vials. Subsequently, a 3 μL aliquot was injected into the LC-MS/MS system.
(§3) WinNonlin 5.1 software (Pharsight Co., Mountain View, CA, USA) was used to calculate the pharmacokinetic parameters. AUClast and AUCinf indicate the areas under the plasma concentration curve from 0 h to the last sample and from 0 h to infinity, respectively; these were estimated using the linear trapezoidal method. T1/2 is the elimination half-life, which is estimated from the elimination coefficient (k) (i.e., 0.693/k), and MRT is the mean residence time. CL is the total clearance, which is calculated by dividing the dose by AUCinf. Vdss is the volume of the distribution at a steady state, calculated from MRTxCL. CLrenal and CLfeces are calculated by dividing the amount excreted in urine and feces by the AUCinf, respectively. CLmetabolism is calculated by subtracting CLrenal and CLfeces from CL. Cmax and Tmax are the maximum plasma concentration and time to reach Cmax, respectively. BA is calculated by dividing the dose-normalized AUCinf for PO administration (AUCinf/PO dose) by the dose-normalized AUCinf for IV administration (AUCinf/IV dose). All data are expressed as the mean ± standard deviation (SD).

[2] = Pharmacokinetics after IV administration in mice; assay type: in vivo; conditions: plasma; for AUC(0-inf) / MRT / clearance / half-life / AUC(0-t) / Vd: male, ICR, mouse; for AUC(0-t): read-out: AUC24h; for Vd: read-out: Vdss
Description: as §1
For intravenous (IV) administration, 2-QBA (0.5 mg/kg in 3 mL of saline containing 10% DMSO) was injected via the tail vein for eight mice that were randomly divided into two groups for sparse sampling. Blood samples were collected via the jugular vein at 0.083, 0.5, 2, and 8 h from 4 mice and at 0.25, 1, 4, and 24 h from another 4 mice. Eight mice were administered 1 mg/kg of 2-QBA using the same protocol described above.
as §2, §3

Plasma protein binding = assay type: in vitro ADME; conditions: n = 6, read-out: plasma protein binding rate (converted)
[3] = male, ICR, mouse, plasma, PO 2 mg/kg
[4] = male, ICR, mouse, plasma, PO 5 mg/kg
[5] = male, ICR, mouse, plasma, PO 15 mg/kg

O=C(O)c1ccccc1NC(=O)c1cccc2cccnc12 [2-QBA, 2-(quinoline-8-carboxamido)benzoic acid]
solubility (Water solubility): 35.6 ± 2.71 µg/mL (≈ 122 µM) | mean absorption time (MRTPO–MRTIV) [1]: 8.02 h | AUC24h/dose ([1]; PO 2 mg/kg): 684.2 ± 340.3 ng·h/mL/mg/kg | AUCinf/dose ([1]; PO 2 mg/kg): 712.7 ± 348.0 ng·h/mL/mg/kg | BA ([1]; PO 2 mg/kg): 68.3% | AUC24h/dose ([1]; PO 5 mg/kg): 702.9 ± 169.2 ng·h/mL/mg/kg | AUCinf/dose ([1]; PO 5 mg/kg): 873.7 ± 186.9 ng·h/mL/mg/kg | BA ([1]; PO 5 mg/kg): 83.7% | AUC24h/dose ([1]; PO 15 mg/kg): 705.5 ± 182.3 ng·h/mL/mg/kg | AUCinf/dose ([1]; PO 15 mg/kg): 734.7 ± 176.3 ng·h/mL/mg/kg | BA ([1]; PO 15 mg/kg): 70.4% | AUC(0-inf) [1, 3]: 1430 ± 696 ng·h/mL | MRT [1, 3]: 12 ± 4.91 h | half-life [1, 3]: 7.82 ± 1.76 h | AUC(0-t) [1, 3]: 1370 ± 680 ng·h/mL | Cmax [1, 3]: 283 ± 174 ng/mL | AUC(0-inf) [1, 4]: 4370 ± 934 ng·h/mL | MRT [1, 4]: 13.7 ± 3.14 h | half-life [1, 4]: 9.91 ± 1.92 h | AUC(0-t) [1, 4]: 3510 ± 846 ng·h/mL | Cmax [1, 4]: 752 ± 319 ng/mL | AUC(0-inf) [1, 5]: 11000 ng·h/mL | MRT [1, 5]: 7.04 ± 0.76 h | half-life [1, 5]: 5.58 ± 1.24 h | AUC(0-t) [1, 5]: 10600 ng·h/mL | Cmax [1, 5]: 2460 ± 696 ng/mL | bioavailability ([1]; male, ICR, mouse, plasma, PO 2.0, 5.0 and 15 mg/kg, read-out: absolute oral bioavailability (BA) range): 68.3 to 83.7% | Tmax ([1]; male, ICR, mouse, plasma, 2 mg/kg, PO 2 mg/kg, read-out: Tmax,1): 0.2 ± 0.11 h | Tmax ([1]; male, ICR, mouse, plasma, 2 mg/kg, PO 2 mg/kg, read-out: Tmax,2): ~5.6 h | Tmax ([1]; male, ICR, mouse, plasma, 5 mg/kg, PO 5 mg/kg, read-out: Tmax,1): 0.25 h | Tmax ([1]; male, ICR, mouse, plasma, 15 mg/kg, PO 15 mg/kg, read-out: Tmax,1): 0.3 ± 0.11 h | Tmax ([1]; male, ICR, mouse, plasma, PO 2-15 mg/kg, read-out: Tmax,1 (range over doses)): 0.2 to 0.3 h | Tmax ([1]; male, ICR, mouse, plasma, PO 2-15 mg/kg, read-out: Tmax,2 (range over doses)): 3.5 to 5.6 h | AUC24h/dose ([2]; IV 0.5 mg/kg): 824.7 ± 64.1 ng·h/mL/mg/kg | AUCinf/dose ([2]; IV 0.5 mg/kg): 835.6 ± 64.6 ng·h/mL/mg/kg | AUC24h/dose ([2]; IV 1.0 mg/kg): 996.7 ± 146.6 ng·h/mL/mg/kg | AUCinf/dose ([2]; IV 1.0 mg/kg): 1044 ± 174.9 ng·h/mL/mg/kg | AUC(0-inf) ([2]; IV 0.5 mg/kg): 418 ± 32.3 ng·h/mL | MRT ([2]; IV 0.5 mg/kg): 3.88 ± 1.58 h | clearance ([2]; IV 0.5 mg/kg): 20 ± 1.53 mL/min/kg | half-life ([2]; IV 0.5 mg/kg): 4.61 ± 2.19 h | AUC(0-t) ([2]; IV 0.5 mg/kg): 412 ± 32.1 ng·h/mL | Vd ([2]; IV 0.5 mg/kg): 4.73 ± 2.15 L/kg | AUC(0-inf) ([2]; IV 1.0 mg/kg): 1040 ± 175 ng·h/mL | MRT ([2]; IV 1.0 mg/kg): 3.03 ± 1.11 h | clearance ([2]; IV 1.0 mg/kg): 16.3 ± 2.81 mL/min/kg | half-life ([2]; IV 1.0 mg/kg): 5.26 ± 1.31 h | AUC(0-t) ([2]; IV 1.0 mg/kg): 997 ± 147 ng·h/mL | Vd ([2]; IV 1.0 mg/kg): 2.88 ± 0.72 L/kg | fraction unbound (Plasma protein binding): 0.128
